# Assay results from article PMC5818060 (Journal of Cell Science, 2018).
# What was measured:
# [1] = system: endogenous CK1 / CK1 sensor in HEK293T cells; experiment: CK1 FRET biosensor, microplate reader FRET/CFP ratio; assay type: cell-based, human; conditions: HEK293T, CK1 sensor; D4476 0.4 or 2 µM in Fig. 1F-H, added 2-4 h prior to analysis; n=3
# Procedure: HEK293T cells were seeded at a density of 20,000 cells/well on 96-well black microplates (PS, μClear, clear bottom, chimney well, Greiner No. 655090). Transfection was performed as described above. Unless indicated otherwise, the respective cell populations were transfected with 50-100 ng CK1 FRET biosensor, 100 ng regulator (i.e. N-Flag DDX3X) and 1-10 ng kinase (i.e. N-Flag CK1ε). Either empty pCS2 N-Flag vector or luciferase were used to transfect the same amount of DNA in every well. Generally, the different samples were run in triplicate for each individual experiment. Owing to the varying values for the FRET/CFP ratios based on transfection efficiency, cell density and the time point of analysis, we always set the FRET/CFP ratio of cells only transfected with the CK1 sensor to 1 in order to compare individual experiments. Importantly, the individual figures with the CK1 sensor represent only experiments performed on the same 96-well plate with the same cell density, transfection efficiency and time point.
# Where applicable, the small-molecule CK1 inhibitor D4476 (BioVision) was added to the cells 2-4 h prior to the analysis. For each triplicate the respective volume of D4476 (in DMSO) was added together with 1 μl Fugene HD (Promega) to 60 μl serum-free medium. The solution was mixed, incubated for 15 min and added to the cells. […] In the corresponding controls an equal amount of DMSO instead of the inhibitor was added to the medium. Analysis was performed 48-60 h after transfection on an Infinite M1000 PRO microplate reader (Tecan) by exciting CFP with a wavelength of 433 nm and measuring the resulting emission at 460-600 nm in 2 nm increments. Fluorometric spectra were background subtracted with spectra recorded from wells with non-transfected cells. Resulting FRET/CFP ratios were calculated by dividing the intensity values at the respective peaks (478 nm for CFP, 528 nm for YFP) and analyzed essentially as described ([Fritz et al., 2013]). Where indicated, CK1δ/ε-derived peptides were transfected into cells using Metafectene (Biontex) 1 hour before measurements.
# DDX3X = experiment: ATPase assay of DDX3X; assay type: biochemical, human; conditions: CK1ε pre-incubated with D4476; dsRNA-stimulated
# Procedure: For the ATPase assay, Flag-tagged DDX3X full-length constructs were expressed in HEK293T cells. After purifying and eluting DDX3X from the beads, an aliquot of the eluates was resolved by SDS-PAGE in order to monitor the different DDX3X levels via western blotting and ImageJ. Based on this comparison, similar amounts of full-length DDX3X protein were used. Approximately 100 ng Flag-DDX3X protein and 10 ng His-CK1ε were used in a 60 μl reaction mix (reaction buffer: 20 mM Tris-HCl, pH 7.4, 200 mM NaCl, 0.5 mM DTT, 1 mM MgCl2, 1 mM ATP) with dsRNA (17 nM, 34 nM, 68 nM); the reaction was carried out at 37°C for 40 min. To phosphorylate DDX3X, 500 ng His-CK1εΔC or His-CK1εΔC^K38R were added in kinase buffer before eluting the DDX3X protein from the Sepharose magnetic Flag beads (Sigma). Incubation was performed at 37°C for 30 min. Then, beads were washed with 50 mM Tris-HCl, pH 7.5 and 500 mM NaCl before elution with Flag peptide. Termination of the helicase reaction was done with 10 μl of 50% TCA solution added to each reaction followed by centrifugation at 3000 g for 5 min at 4°C. Reaction mix was mixed with coloring solution (35 mM ammonium molybdate, 10 mM zinc acetate, 10% ascorbic acid, pH 5) in a 96-well plate before analysis using a spectrometer (wavelength 700 nm).
# [2] = reason given for adding Fugene HD; ref Rena et al., 2004; cited from earlier work
# Procedure: Where applicable, the small-molecule CK1 inhibitor D4476 (BioVision) was added to the cells 2-4 h prior to the analysis. For each triplicate the respective volume of D4476 (in DMSO) was added together with 1 μl Fugene HD (Promega) to 60 μl serum-free medium. The solution was mixed, incubated for 15 min and added to the cells. […] In the corresponding control ...
smiles,measurement,setting,value
"NC(=O)c1ccc(-c2nc(-c3ccc4c(c3)OCCO4)c(-c3ccccn3)[nH]2)cc1 [D4476, reference compound]",effect of CK1 inhibitor on FRET/CFP ratio of CK1 sensor,[1],reduced as a result of the inhibitor treatment
same,effect of CK1 inhibitor on CK1ε-mediated inhibition of DDX3X ATPase activity,DDX3X,prevented inhibition of the ATPase activity of DDX3X
same,cell permeability,[2],poor cell permeability
